Tested on: HeLa 1.2.11 cells
Assay: HeLa cell proliferation assay (WST-1)
Type: cell-based, human
Conditions: 50 μM, 3-day time course
Description: WRN inhibitors were diluted in DMSO to a concentration 100-fold higher than their final concentrations. U2-OS cells in culture were counted, spun down and resuspended to 35,000 cells/mL in DMEM with 10% FBS and Pen/Strep antibiotic. For each cell condition, 15 μL of DMSO or inhibitor was added to 1.5 ml of U2-OS cells in DMEM or DMEM alone. One hundred μL of each cell condition was plated in triplicate on each of four 96-well plates representing days 0–3. Ten μL of WST-1 cell proliferation reagent (Roche) was added to the day 0 plate and readings were taken 2 hr later using a plate reader set to 450 nm. WST-1 cell proliferation reagent was added to plates on days 1–3 and readings were taken after 2 hr incubation. Percent cell proliferation was normalized to cells in the presence of DMSO with the background OD450 of DMEM with each drug subtracted out. […]
Fig 9 Effects of WRN helicase inhibitors on cancer cell proliferation. (A) Cell proliferation of HeLa 1.2.11 cells treated with 50 μM NCGC00029283-03, NCGC00063279-03, NCGC00357377-01 and NSC 617145 (positive control) or vehicle (DMSO) on Day 0 and Day 3 as measured using the WST-1 cell proliferation reagent. […]

Cc1ccc(-c2csc(NS(=O)(=O)c3cccc(F)c3)n2)o1 [MLS002251300-02]
Effect on HeLa 1.2.11 cell proliferation: did not reduce cell proliferation
